Data from ChEMBL document CHEMBL1138164, “Synthesis and structure-activity relationships of novel pyrrolocarbazole lactam analogs as potent and cell-permeable inhibitors of poly(ADP-ribose)polymerase-1 (PARP-1)” (Bioorg Med Chem Lett, 2006).
≈ marks a conversion by molar mass, not a printed value.

Key:
[1] = tested on: PC-12; assay: Potency in PC12 cells assessed by recovery of NAD+ at 1 uM; type: functional, Rattus norvegicus
[2] = tested on: PC-12; assay: Efficacy in PC12 cells assessed by recovery of NAD+ at 30 uM; type: functional, Rattus norvegicus
[3] = Aqueous solubility of compound; type: physicochemical; conditions: water (aqueous)
[4] = tested on: PC-12; assay: Potency in PC12 cells assessed by recovery of NAD+ at 10 uM; type: functional, Rattus norvegicus

SMILES | Activity [1] [%] | Efficacy [2] [%] | solubility [3] [µg/mL] | Activity [4] [%]
COC(=O)c1ccc2[nH]c3c4c(c5c(c3c2c1)CNC5=O)CCC4 | 38 | 134 |  | 
NCc1ccc2[nH]c3c4c(c5c(c3c2c1)CNC5=O)CCC4 | 39 | 102 | 100 (≈ 343 µM) | 
Cc1ccc2[nH]c3c4c(c5c(c3c2c1)CNC5=O)CCC4 | 17 | 50 |  | 
O=C1NCc2c1c1c(c3[nH]c4ccc(Br)cc4c23)CCC1 | 28 |  |  | 47
CN(Cc1ccncc1)C(=O)c1ccc2[nH]c3c4c(c5c(c3c2c1)CNC5=O)CCC4 | 23 | 101 |  | 
N#Cc1ccc2[nH]c3c4c(c5c(c3c2c1)CNC5=O)CCC4 | 26 | 122 |  | 74
O=C1NCc2c1c1c(c3[nH]c4ccc(C(=O)N5CCOCC5)cc4c23)CCC1 | 18 | 74 |  | 
O=C1NCc2c1c1c(c3[nH]c4ccc(Cl)cc4c23)CCC1 | 26 | 133 |  | 
O=C(NCCN1CCOCC1)c1ccc2[nH]c3c4c(c5c(c3c2c1)CNC5=O)CCC4 | 7 | 27 |  | 
O=C(NCCn1ccnn1)c1ccc2[nH]c3c4c(c5c(c3c2c1)CNC5=O)CCC4 | 12 | 28 |  | 
CN(C)CCNC(=O)c1ccc2[nH]c3c4c(c5c(c3c2c1)CNC5=O)CCC4 | 6 | 36 |  | 
CN(CCc1c[nH]cn1)C(=O)c1ccc2[nH]c3c4c(c5c(c3c2c1)CNC5=O)CCC4 | 5 | 39 |  | 
NCCCCC(N)C(=O)NCc1ccc2[nH]c3c4c(c5c(c3c2c1)CNC5=O)CCC4 (stereo not given) | 2 | 48 |  | 
O=C1NCc2c1c1c(c3[nH]c4ccccc4c23)CCC1 | 48 |  | < 1 | 68
O=C(O)c1ccc2[nH]c3c4c(c5c(c3c2c1)CNC5=O)CCC4 | 24 | 65 |  | 
CN(Cc1ccccn1)C(=O)c1ccc2[nH]c3c4c(c5c(c3c2c1)CNC5=O)CCC4 | 11 | 44 |  | 
